How the values were obtained:
[1] = mice; compared with testosterone administered by the same route; cited from earlier work
[2] = orchiectomised male rats

SMILES: C[C@]12CC[C@H]3[C@@H](CCC4=CC(=O)CC[C@@]43C)[C@@H]1CC[C@@H]2O[C@@H]1O[C@H](CO)[C@@H](O)[C@H](O)[C@H]1O [testosterone glucoside, Testosterone-17-β-1′-β′-D-glucopyranose]
- biological activity in vivo [1]: very little activity in vivo, and certainly less than testosterone
- bioavailability, oral ([2]; 1.56 mg orally daily for 6 days, serum testosterone 4 hours after final dose): bioavailable when given orally
- metabolism to testosterone ([2]; oral or intramuscular, daily for 6 days): readily metabolised to testosterone

— patent publication US6916791B2, “Androgen derivatives and uses thereof” (Strakan Limited, priority 1999, dated 2005)
